Test results from article PMC3614987, “Exploring the Chemical Space around 8-Mercaptoguanine as a Route to New Inhibitors of the Folate Biosynthesis Enzyme HPPK” (PLoS ONE, 2013).
“Also recorded” adds a separate entry of the source. Like-named read-outs stand apart in the source and are kept apart here.

Key:
[1] = molecular target: T1, SaHPPK (Staphylococcus aureus, UniProt A0A0H3JXR3); set-up: method as in Chhabra et al PlosONE 2012; conditions: ITC; ref Chhabra et al PlosONE 2012; cited from earlier work
[2] = molecular target: T1, SaHPPK; set-up: method as in PMID 22276115; conditions: inhibition of the S. aureus enzyme; cited from earlier work
[3] = molecular target: T1, SaHPPK; set-up: method as in PMID 22276115; conditions: SPR and ITC; cited from earlier work
[4] = molecular target: T1, SaHPPK; experiment: SPR binding to SaHPPK
Excerpt: Initially, the binding of each of the test compounds to SaHPPK was quantitatively assessed using SPR (Fig. S1, S2). […] Moreover, all sensorgrams (Fig. S1 and S2) were of high quality and consistent with near perfect 1∶1 stoichiometric binding of analogues. Table 1 lists the estimated equilibrium dissociation constants (KD). […] This supports the hypothesis that the 8-mercapto group of 8-MG aids binding through the formation of one or more favorable interactions with SaHPPK.
All SPR binding experiments were performed as described previously. The only difference was the use of a sulfhydryl reactive maleimide-activated biotin derivative (Thermo Scientific, 1-biotinamido-4-(4′-[maleimidoethylcyclohexane]-carboxamido)butane. The maleimide-activated biotin was attached to the exposed surface cysteine residue of SaHPPK according to manufacturer’s instructions. The resulting site-specific biotinylated protein was immobilized onto the sensor chip surface using the Biotin capture kit (GE Healthcare). All analogues were serially diluted (either 2- or 3-fold from 126 µM down to 1.5 µM) in SPR binding buffer (50 mM HEPES, 150 mMNaCl, 1 mM TCEP, 0.05% (v/v) Tween-20, 10 mM MgCl2, 5% (v/v) DMSO, pH 8.0) and injected for 30 sec contact time at 60 µL/min and then allowed to dissociate for 60 sec. Binding sensorgrams were processed using the Scrubber (version 2c, BioLogic Software, Campbell, Australia). To determine the binding affinity (equilibrium dissociation constant; KD), responses at equilibrium for each compound were fit to a 1∶1 steady state affinity model available within Scrubber.

[5] = molecular target: T1, SaHPPK; experiment: ITC binding to SaHPPK; conditions: 298 K; for ΔG: calculated as -RT.lnKa; for TΔS: calculated using ΔG = ΔH - TΔS; for Kd: read-out: K D ITC
Experimental: To corroborate the ligand binding affinities determined by SPR, and to determine the enthalpic and entropic contributions to the free energy of binding, ITC experiments were performed for selected compounds (21a and 21c–21e) (Table 2, Fig. S3). […] To investigate the factors contributing to the free energy of binding, we solved the structure of SaHPPK in complex with 21a.
Experiments were performed using an iTC200 instrument (MicroCal) at 298 K, with the ligands titrated into solutions of SaHPPK using 18×2.2 µL injections. Data were fitted using Origin software to yield the thermodynamic parameters, ΔH, KD and N (the binding stoichiometry), assuming a cell volume of 0.2 mL. These were then used to calculate the Gibb’s free energy of binding, ΔG (-RT.lnK a), and entropy of binding, ΔS (using ΔG = ΔH - TΔS). A stock solution of SaHPPK was dialyzed overnight into 50 mM HEPES, 1 mM TCEP, 10 mM MgCl2, pH 8.0 buffer with the addition of 5% DMSO (v/v) prior to running the experiment. For titrations with compounds 21a–e, SaHPPK was typically at 30 µM and the ligand stocks were at 1–1.5 mM dissolved in the above buffer then diluted into more of the same buffer. There was no apparent issue with limited solubility of 21a–c compromising either the stock solutions or the injected concentrations.

[6] = molecular target: T1, SaHPPK; experiment: 2D 15N NMR titration of 15N-labelled SaHPPK; assay type: binding
Experimental: ^15N-labelled protein samples for NMR spectroscopy were prepared as described. 2D soFast ^15N HMQC [43] NMR experiments were recorded on a Varian Inova 600 MHz NMR spectrometer equipped with a cryoprobe and Z axis gradient on samples of ∼100 µM ^15N-labelled SaHPPK dissolved in 50 mM HEPES buffer (pH 8.0, 90% H2O 10% D2O, 1% sorbitol) by titrating in aliquots from a 25 mM stock of 21a dissolved in DMSO-D6.

[7] = molecular target: T1, SaHPPK; conditions: cofactor analogue; no reference given; cited from earlier work
[8] = molecular target: HPPK; set-up: method as in PMID 10751386, PMID 12093297, PMID 11311059, PMID 10825540, PMID 22169600; conditions: ATP binds prior to the substrate; cited from earlier work
[9] = SPR, in the presence of 10 mM Mg2+/1 mM ATP, 293 K, read-out: K D b
[10] = SPR, in the presence of 10 mM Mg2+, 293 K
[11] = SPR, in the presence of 10 mM Mg2+, 293 K, read-out: K D a

T1 sequence (A0A0H3JXR3 entry or part of it): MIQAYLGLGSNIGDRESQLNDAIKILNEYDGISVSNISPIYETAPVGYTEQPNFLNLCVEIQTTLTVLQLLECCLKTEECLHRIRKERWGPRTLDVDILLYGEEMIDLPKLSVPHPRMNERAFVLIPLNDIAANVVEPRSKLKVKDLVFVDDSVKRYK

Structure (SMILES)	Kd [4, 9] [µM]	melting point	Kd [4, 11] [µM]	N (binding stoichiometry) [5]	ΔH [5] [kcal/mol]	ΔG [5] [kcal/mol]	TΔS [5] [kcal/mol]	Kd [5] [µM]	further results
Nc1nc2nc(S)[nH]c2c(=O)[nH]1 [8-MG, 8-mercaptoguanine]	–	–	–	–	–	–	–	–	N (binding stoichiometry) [1]: 1.0±0.06; TΔS [1]: -12.9 ± 3.5 kcal/mol; ΔG [1]: -6.7 ± 0.2 kcal/mol; ΔH [1]: -19.6 ± 3.4 kcal/mol; IC50 [2]: ~41 µM; binding relative to the cofactor (ATP / AMPCPP) [3]: non-competitive
CNc1nc2nc(N)[nH]c(=O)c2[nH]1 [10a, 8-(Methylamino)guanine]	108 ± 5	252 to 257 °C (dec.)	–	–	–	–	–	–	K D a [4, 10]: did not bind; also recorded: No binding
Cn1c(S)nc2c(=O)[nH]c(N)nc21 [15a]	410 ± 10	–	194 ± 5	–	–	–	–	–	–
CCn1c(S)nc2c(=O)[nH]c(N)nc21 [15b, 8-Mercapto-9-ethylguanine]	340 ± 10	240 to 244 °C (dec.)	190 ± 10	–	–	–	–	–	–
Nc1nc2c(nc(S)n2Cc2ccccc2)c(=O)[nH]1 [15c, 8-Mercapto-9-benzylguanine]	201 ± 6	> 300 °C (dec.)	106 ± 2	–	–	–	–	–	–
Nc1nc2c(nc(S)n2CCc2ccccc2)c(=O)[nH]1 [15d, 8-Mercapto-9-phenethylguanine]	510 ± 20	291 to 295 °C (dec.)	145 ± 4	–	–	–	–	–	–
Nc1nc2nc(S)n(CCO)c2c(=O)[nH]1 [21a, 7-(2-Hydroxyethyl)-8-mercaptoguanine]	130 ± 10	> 300 °C	12.3 ± 1	0.8±0.10	-10.5 ± 0.6	-6.4 ± 0.1	-4.1 ± 0.5	16.7 ± 3.5	Kd ([4]; approximate value, over 15 heavy atoms, read-out: K D (ligand efficiency comparison)): ~10 µM; binding relative to the cofactor (ATP / AMPCPP) ([6]; NMR (and SPR), saturating AMPCPP 1 mM, 10 mM magnesium): competitive binding with the ATP cofactor; also recorded: competitive with AMPCPP; magnesium dependence of binding ([6]; titration into apo and magnesium-loaded SaHPPK): not magnesium-dependent
Nc1nc2nc(S)n(CC(=O)O)c2c(=O)[nH]1 [21b, 2-(8-Mercaptoguanin-7-yl)acetic acid]	140 ± 4	247 to 253 °C (dec.)	–	–	–	–	–	–	K D a [4, 10]: did not bind; also recorded: No binding
NCCn1c(S)nc2nc(N)[nH]c(=O)c21 [21c, 7-(2-Aminoethyl)-8-mercaptoguanine]	160 ± 20	280 to 287 °C (dec.)	26.4 ± 3	1.2±0.02	-5.8 ± 0.1	-6.2 ± 0.1	0.4 ± 0.2	22.4 ± 2	–
NCCCn1c(S)nc2nc(N)[nH]c(=O)c21 [21d, 7-(3-Aminopropyl)-8-mercaptoguanine]	121 ± 6	239 to 243 °C (dec.)	25.9 ± 2	1.3±0.05	-6.2 ± 0.4	-6.0 ± 0.1	-0.2 ± 0.5	34.3 ± 6.2	–
N=C(N)NCCn1c(S)nc2nc(N)[nH]c(=O)c21 [21e, 7-(2-Guanidinoethyl)-8-mercaptoguanine]	–	256 to 262 °C (dec.)	30 ± 4	1.4±0.02	-4.3 ± 0.1	-6.0 ± 0.1	1.7 ± 0.2	35.1 ± 4.8	K D b ([4]; SPR, in the presence of 10 mM Mg2+/1 mM ATP, 293 K): No binding
Nc1ncnc2c1ncn2[C@@H]1O[C@H](COP(=O)(O)CP(=O)(O)OP(=O)(O)O)[C@@H](O)[C@H]1O [AMPCPP]	–	–	–	–	–	–	–	–	Kd [7]: 3 µM
Nc1ncnc2c1ncn2[C@@H]1O[C@H](COP(=O)(O)OP(=O)(O)OP(=O)(O)O)[C@@H](O)[C@H]1O [ATP]	–	–	–	–	–	–	–	–	Kd [8]: 2.6 to 4.5 µM
